How the values were obtained:
[1] = target: Phosphatidylinositol 4-phosphate 5-kinase type-1 alpha (Homo sapiens) (UniProt Q99755); details: Compound concentration 100.0 nM
[2] = target: Phosphatidylinositol 3-kinase catalytic subunit type 3 (Homo sapiens) (UniProt Q8NEB9); details: Compound concentration 100.0 nM
[3] = target: Serine/threonine-protein kinase Sgk3 (Homo sapiens) (UniProt Q96BR1); details: Compound concentration 100.0 nM
[4] = tested on: Proto-oncogene tyrosine-protein kinase receptor Ret (Homo sapiens), P07949 [V804L]; details: Compound concentration 100.0 nM
[5] = target: Receptor-interacting serine/threonine-protein kinase 2 (Homo sapiens) (UniProt O43353); details: Compound concentration 100.0 nM
Chain of Receptor-interacting serine/threonine-protein kinase 2 (Homo sapiens) (O43353 whole entry): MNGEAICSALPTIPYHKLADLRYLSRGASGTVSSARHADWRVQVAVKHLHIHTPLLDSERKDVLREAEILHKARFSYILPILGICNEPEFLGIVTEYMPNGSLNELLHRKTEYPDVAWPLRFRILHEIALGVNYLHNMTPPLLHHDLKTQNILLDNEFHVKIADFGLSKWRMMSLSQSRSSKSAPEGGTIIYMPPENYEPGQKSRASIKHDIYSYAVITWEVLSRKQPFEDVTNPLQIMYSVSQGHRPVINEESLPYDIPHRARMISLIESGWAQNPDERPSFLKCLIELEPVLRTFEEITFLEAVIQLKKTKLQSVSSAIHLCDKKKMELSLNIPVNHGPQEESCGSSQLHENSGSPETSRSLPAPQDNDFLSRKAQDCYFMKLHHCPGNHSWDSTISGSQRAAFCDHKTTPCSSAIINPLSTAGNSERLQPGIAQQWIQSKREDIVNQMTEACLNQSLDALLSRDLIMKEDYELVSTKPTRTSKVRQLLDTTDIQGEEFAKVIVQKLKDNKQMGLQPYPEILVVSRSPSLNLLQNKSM

[6] = target: Insulin receptor (Homo sapiens) (UniProt P06213); details: Compound concentration 100.0 nM
[7] = target: Ribosomal protein S6 kinase alpha-1 (Homo sapiens) (UniProt Q15418); details: Compound concentration 100.0 nM
[8] = target: Wee1-like protein kinase (Homo sapiens) (UniProt P30291); details: Compound concentration 100.0 nM
[9] = tested on: Receptor-type tyrosine-protein kinase FLT3 (Homo sapiens), P36888 [UNDEFINED MUTATION]; details: Compound concentration 100.0 nM
[10] = target: Serine/threonine-protein kinase MARK1 (Homo sapiens) (UniProt Q9P0L2); details: Compound concentration 100.0 nM
[11] = target: Serine/threonine-protein kinase Sgk1 (Homo sapiens) (UniProt O00141); details: Compound concentration 100.0 nM
[12] = target: Phosphatidylinositol 4,5-bisphosphate 3-kinase catalytic subunit beta isoform (Homo sapiens) (UniProt P42338); details: Compound concentration 100.0 nM
[13] = tested on: Hepatocyte growth factor receptor (Homo sapiens), P08581 [M1250T]; details: Compound concentration 100.0 nM
[14] = target: Serine/threonine-protein kinase PAK 3 (Homo sapiens) (UniProt O75914); details: Compound concentration 100.0 nM
[15] = target: Macrophage colony-stimulating factor 1 receptor (Homo sapiens) (UniProt P07333); details: Compound concentration 100.0 nM
[16] = tested on: Phosphatidylinositol 4,5-bisphosphate 3-kinase catalytic subunit alpha isoform (Homo sapiens), P42336 [C420R]; details: Compound concentration 100.0 nM
[17] = target: cAMP-dependent protein kinase catalytic subunit beta (Homo sapiens) (UniProt P22694); details: Compound concentration 100.0 nM
[18] = target: Fibroblast growth factor receptor 1 (Homo sapiens) (UniProt P11362); details: Compound concentration 100.0 nM
Chain of Fibroblast growth factor receptor 1 (Homo sapiens) (P11362 22-822 limits assumed): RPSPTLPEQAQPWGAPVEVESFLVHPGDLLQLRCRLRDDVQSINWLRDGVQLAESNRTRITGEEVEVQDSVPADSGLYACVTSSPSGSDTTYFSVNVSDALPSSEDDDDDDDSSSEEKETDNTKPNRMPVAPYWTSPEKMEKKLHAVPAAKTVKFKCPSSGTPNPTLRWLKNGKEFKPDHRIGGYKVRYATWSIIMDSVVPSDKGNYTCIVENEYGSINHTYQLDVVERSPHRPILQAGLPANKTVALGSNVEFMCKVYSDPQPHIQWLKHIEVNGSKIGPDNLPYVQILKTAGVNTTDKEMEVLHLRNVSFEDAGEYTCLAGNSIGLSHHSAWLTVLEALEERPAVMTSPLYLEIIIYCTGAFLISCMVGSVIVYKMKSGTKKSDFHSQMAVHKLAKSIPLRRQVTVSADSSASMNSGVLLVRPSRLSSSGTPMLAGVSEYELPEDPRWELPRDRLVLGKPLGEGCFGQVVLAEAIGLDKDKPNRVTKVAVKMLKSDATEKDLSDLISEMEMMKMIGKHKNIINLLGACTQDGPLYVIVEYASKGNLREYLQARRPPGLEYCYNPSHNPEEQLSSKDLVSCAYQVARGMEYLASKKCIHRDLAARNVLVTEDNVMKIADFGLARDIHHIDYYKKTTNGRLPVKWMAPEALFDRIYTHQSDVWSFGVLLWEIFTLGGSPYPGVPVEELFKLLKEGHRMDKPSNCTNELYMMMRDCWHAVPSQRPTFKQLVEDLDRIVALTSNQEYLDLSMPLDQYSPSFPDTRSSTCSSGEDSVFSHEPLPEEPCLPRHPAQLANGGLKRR

[19] = target: Phosphatidylinositol 4,5-bisphosphate 3-kinase catalytic subunit delta isoform (Homo sapiens) (UniProt O00329); details: Compound concentration 100.0 nM
Chain of Phosphatidylinositol 4,5-bisphosphate 3-kinase catalytic subunit delta isoform (Homo sapiens) (O00329 whole entry, canonical isoform): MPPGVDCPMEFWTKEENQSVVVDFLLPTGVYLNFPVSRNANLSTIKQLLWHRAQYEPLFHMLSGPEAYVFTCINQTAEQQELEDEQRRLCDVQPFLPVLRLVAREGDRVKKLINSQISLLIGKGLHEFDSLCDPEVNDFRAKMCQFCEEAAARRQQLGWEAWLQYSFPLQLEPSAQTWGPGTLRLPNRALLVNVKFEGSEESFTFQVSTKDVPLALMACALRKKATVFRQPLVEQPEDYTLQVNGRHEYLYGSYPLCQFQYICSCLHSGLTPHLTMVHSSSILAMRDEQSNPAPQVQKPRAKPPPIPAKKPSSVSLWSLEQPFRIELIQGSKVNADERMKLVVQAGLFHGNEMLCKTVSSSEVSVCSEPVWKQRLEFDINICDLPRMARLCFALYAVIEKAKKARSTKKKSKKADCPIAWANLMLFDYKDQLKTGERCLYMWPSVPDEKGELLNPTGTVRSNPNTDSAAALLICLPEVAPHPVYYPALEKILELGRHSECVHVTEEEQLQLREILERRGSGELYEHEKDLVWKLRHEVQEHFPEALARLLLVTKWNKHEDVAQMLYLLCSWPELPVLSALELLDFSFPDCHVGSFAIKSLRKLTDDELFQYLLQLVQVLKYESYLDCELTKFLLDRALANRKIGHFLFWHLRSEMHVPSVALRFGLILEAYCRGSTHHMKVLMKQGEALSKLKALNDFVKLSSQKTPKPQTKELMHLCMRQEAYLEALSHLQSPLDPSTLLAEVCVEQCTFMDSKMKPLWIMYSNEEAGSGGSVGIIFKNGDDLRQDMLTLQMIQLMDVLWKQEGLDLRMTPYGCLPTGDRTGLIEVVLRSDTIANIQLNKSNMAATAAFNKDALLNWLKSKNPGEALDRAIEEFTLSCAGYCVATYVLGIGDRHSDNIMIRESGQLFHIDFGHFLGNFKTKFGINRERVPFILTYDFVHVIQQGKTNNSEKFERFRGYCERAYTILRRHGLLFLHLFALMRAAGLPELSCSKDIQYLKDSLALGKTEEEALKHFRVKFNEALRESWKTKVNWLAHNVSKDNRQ

[20] = target: Serine/threonine-protein kinase SIK3 (Homo sapiens) (UniProt Q9Y2K2); details: Compound concentration 100.0 nM
[21] = target: D(1B) dopamine receptor (Homo sapiens) (UniProt P21918); details: Compound concentration 10.0 uM
[22] = target: Interleukin-1 receptor-associated kinase 4 (Homo sapiens) (UniProt Q9NWZ3); details: Compound concentration 100.0 nM
[23] = target: Serine/threonine-protein kinase pim-1 (Homo sapiens) (UniProt P11309); details: Compound concentration 100.0 nM
[24] = target: Mitogen-activated protein kinase kinase kinase 6 (Homo sapiens) (UniProt O95382); details: Compound concentration 100.0 nM
[25] = target: Myosin light chain kinase family member 4 (Homo sapiens) (UniProt Q86YV6); details: Compound concentration 100.0 nM
[26] = target: Serine/threonine-protein kinase SIK2 (Homo sapiens) (UniProt Q9H0K1); details: Compound concentration 100.0 nM
[27] = target: Serine/threonine-protein kinase Nek11 (Homo sapiens) (UniProt Q8NG66); details: Compound concentration 100.0 nM
[28] = target: Serine/threonine-protein kinase tousled-like 2 (Homo sapiens) (UniProt Q86UE8); details: Compound concentration 100.0 nM
[29] = target: Testis-specific serine/threonine-protein kinase 3 (Homo sapiens) (UniProt Q96PN8); details: Compound concentration 100.0 nM
[30] = target: Serine/threonine-protein kinase/endoribonuclease IRE1 (Homo sapiens) (UniProt O75460); details: Compound concentration 100.0 nM
[31] = target: cAMP-dependent protein kinase catalytic subunit PRKX (Homo sapiens) (UniProt P51817); details: Compound concentration 100.0 nM
[32] = target: Cyclin-dependent kinase-like 2 (Homo sapiens) (UniProt Q92772); details: Compound concentration 100.0 nM
Chain of Cyclin-dependent kinase-like 2 (Homo sapiens) (Q92772 whole entry): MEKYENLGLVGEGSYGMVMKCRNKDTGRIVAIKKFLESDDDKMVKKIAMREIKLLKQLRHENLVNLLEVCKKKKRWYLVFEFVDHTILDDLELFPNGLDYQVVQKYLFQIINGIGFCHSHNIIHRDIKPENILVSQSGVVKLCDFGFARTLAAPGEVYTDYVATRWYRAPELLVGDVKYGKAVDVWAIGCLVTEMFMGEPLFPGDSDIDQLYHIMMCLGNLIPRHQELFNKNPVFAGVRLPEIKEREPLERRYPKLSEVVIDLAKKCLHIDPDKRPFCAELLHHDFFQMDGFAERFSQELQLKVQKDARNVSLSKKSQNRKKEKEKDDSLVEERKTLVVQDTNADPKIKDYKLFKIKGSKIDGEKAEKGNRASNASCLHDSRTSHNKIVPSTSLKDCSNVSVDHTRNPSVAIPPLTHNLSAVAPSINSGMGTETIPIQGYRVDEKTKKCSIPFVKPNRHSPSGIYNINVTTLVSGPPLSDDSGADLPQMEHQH

[33] = target: Dual specificity mitogen-activated protein kinase kinase 6 (Homo sapiens) (UniProt P52564); details: Compound concentration 100.0 nM
[34] = target: Aurora kinase B (Homo sapiens) (UniProt Q96GD4); details: Compound concentration 100.0 nM
[35] = target: Dual specificity mitogen-activated protein kinase kinase 3 (Homo sapiens) (UniProt P46734); details: Compound concentration 100.0 nM
Chain of Dual specificity mitogen-activated protein kinase kinase 3 (Homo sapiens) (P46734 whole entry): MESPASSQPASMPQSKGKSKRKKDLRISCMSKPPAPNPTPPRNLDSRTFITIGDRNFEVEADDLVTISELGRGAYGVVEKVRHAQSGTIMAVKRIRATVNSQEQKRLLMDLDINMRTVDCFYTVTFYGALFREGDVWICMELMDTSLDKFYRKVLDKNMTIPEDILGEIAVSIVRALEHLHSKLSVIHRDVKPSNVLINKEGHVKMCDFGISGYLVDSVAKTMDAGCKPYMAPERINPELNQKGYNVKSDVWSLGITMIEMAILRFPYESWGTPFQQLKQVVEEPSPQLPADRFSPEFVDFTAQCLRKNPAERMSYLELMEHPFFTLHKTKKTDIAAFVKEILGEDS

[36] = target: Serine/threonine-protein kinase 4 (Homo sapiens) (UniProt Q13043); details: Compound concentration 100.0 nM
[37] = target: GABA-A receptor; anion channel (Rattus norvegicus) (UniProt O09028+P15431+P18506+P18508+P19969+P20236+P23574+P23576+P28471+P28473+P30191+P62813+P63079+P63138+Q91ZM7+Q9ES14); details: Compound concentration 10.0 uM
[38] = target: Mitogen-activated protein kinase kinase kinase 9 (Homo sapiens) (UniProt P80192); details: Compound concentration 100.0 nM
[39] = target: Serine/threonine-protein kinase Chk1 (Homo sapiens) (UniProt O14757); details: Compound concentration 100.0 nM
[40] = target: 5-hydroxytryptamine receptor 1B (Homo sapiens) (UniProt P28222); details: Compound concentration 10.0 uM
[41] = target: MAP/microtubule affinity-regulating kinase 4 (Homo sapiens) (UniProt Q96L34); details: Compound concentration 100.0 nM
[42] = target: Mitogen-activated protein kinase kinase kinase kinase 3 (Homo sapiens) (UniProt Q8IVH8); details: Compound concentration 100.0 nM
Chain of Mitogen-activated protein kinase kinase kinase kinase 3 (Homo sapiens) (Q8IVH8 whole entry): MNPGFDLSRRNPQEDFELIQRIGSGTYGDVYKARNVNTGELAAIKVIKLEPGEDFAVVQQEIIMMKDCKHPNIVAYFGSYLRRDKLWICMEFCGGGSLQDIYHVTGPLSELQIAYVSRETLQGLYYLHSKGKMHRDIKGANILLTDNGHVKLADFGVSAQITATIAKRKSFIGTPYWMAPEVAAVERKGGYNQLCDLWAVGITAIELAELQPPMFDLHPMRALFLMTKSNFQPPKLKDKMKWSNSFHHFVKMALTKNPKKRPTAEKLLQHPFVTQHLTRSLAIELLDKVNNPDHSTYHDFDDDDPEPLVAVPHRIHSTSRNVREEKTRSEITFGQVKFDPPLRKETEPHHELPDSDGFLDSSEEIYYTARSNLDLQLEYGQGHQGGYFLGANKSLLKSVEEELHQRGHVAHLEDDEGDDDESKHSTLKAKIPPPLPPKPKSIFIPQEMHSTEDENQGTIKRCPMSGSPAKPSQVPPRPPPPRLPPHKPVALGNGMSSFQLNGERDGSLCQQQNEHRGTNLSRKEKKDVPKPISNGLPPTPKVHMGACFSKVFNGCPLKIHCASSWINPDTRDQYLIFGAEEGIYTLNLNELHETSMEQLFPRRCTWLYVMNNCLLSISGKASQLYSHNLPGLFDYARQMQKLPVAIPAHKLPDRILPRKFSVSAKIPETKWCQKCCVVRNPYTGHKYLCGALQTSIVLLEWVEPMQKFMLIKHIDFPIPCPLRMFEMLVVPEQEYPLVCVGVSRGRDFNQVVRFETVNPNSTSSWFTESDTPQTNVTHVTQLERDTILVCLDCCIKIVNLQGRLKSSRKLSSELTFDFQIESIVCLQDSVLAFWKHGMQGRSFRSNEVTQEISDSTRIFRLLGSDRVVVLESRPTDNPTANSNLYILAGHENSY

[43] = target: Cyclin-dependent kinase-like 1 (Homo sapiens) (UniProt Q00532); details: Compound concentration 100.0 nM

Chain of Phosphatidylinositol 3-kinase catalytic subunit type 3 (Homo sapiens) (Q8NEB9 whole entry): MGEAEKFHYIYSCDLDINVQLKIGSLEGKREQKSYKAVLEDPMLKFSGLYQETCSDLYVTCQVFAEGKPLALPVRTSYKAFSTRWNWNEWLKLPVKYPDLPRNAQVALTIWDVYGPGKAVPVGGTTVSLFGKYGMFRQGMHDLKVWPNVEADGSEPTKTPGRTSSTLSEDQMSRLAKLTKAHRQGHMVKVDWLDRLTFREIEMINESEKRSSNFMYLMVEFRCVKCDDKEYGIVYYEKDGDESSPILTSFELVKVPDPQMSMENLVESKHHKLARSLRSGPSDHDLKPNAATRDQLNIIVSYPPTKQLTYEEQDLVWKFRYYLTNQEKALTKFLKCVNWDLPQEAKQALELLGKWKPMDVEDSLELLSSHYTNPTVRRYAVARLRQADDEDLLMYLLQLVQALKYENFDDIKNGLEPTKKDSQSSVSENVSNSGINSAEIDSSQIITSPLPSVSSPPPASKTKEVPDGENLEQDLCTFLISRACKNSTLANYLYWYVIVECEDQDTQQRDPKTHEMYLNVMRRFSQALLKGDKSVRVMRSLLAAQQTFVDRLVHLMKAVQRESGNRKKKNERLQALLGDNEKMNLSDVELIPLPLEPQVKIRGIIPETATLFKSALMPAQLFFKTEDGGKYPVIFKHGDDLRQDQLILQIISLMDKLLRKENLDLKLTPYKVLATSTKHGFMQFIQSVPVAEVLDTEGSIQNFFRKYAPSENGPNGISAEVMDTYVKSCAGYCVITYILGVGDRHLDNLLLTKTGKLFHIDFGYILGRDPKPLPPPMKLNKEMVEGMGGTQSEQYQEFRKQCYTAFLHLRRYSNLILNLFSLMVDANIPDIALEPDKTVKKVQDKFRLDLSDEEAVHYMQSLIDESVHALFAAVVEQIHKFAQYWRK

CC(C)CC(=O)N1CCc2nc(-c3ccc(Br)cc3)nc(N(C)Cc3ccccc3)c2C1 [THPP-1-NC]
inactive: residual activity [1] 100% | residual activity [2] 100% | residual activity [3] 100% | residual activity [4] 100% | residual activity [5] 100% | residual activity [6] 84% | residual activity [7] 93% | residual activity [8] 100% | residual activity [9] 68% | residual activity [10] 92% | residual activity [11] 99% | residual activity [12] 100% | residual activity [13] 70% | residual activity [14] 100% | residual activity [15] 100% | residual activity [16] 87% | residual activity [17] 82% | residual activity [18] 100% | residual activity [19] 82% | residual activity [20] 100% | inhibition [21] 19.4% | residual activity [22] 100% | residual activity [23] 100% | residual activity [24] 100% | residual activity [25] 100% | residual activity [26] 100% | residual activity [27] 98% | residual activity [28] 100% | residual activity [29] 100% | residual activity [30] 100% | residual activity [31] 100% | residual activity [32] 87% | residual activity [33] 100% | residual activity [34] 92% | residual activity [35] 100% | residual activity [36] 100% | inhibition [37] -3.36% | residual activity [38] 91% | residual activity [39] 100% | inhibition [40] 12.9% | residual activity [41] 100% | residual activity [42] 95% | residual activity [43] 63%

COCCOc1nc(-c2ccc(Cl)nc2)nc2c1CN(C(=O)c1ncn3ccccc13)CC2 [THPP-1]
inactive: residual activity [1] 100% | residual activity [2] 100% | residual activity [3] 100% | residual activity [4] 100% | residual activity [5] 100% | residual activity [6] 76% | residual activity [7] 100% | residual activity [8] 100% | residual activity [9] 64% | residual activity [10] 100% | residual activity [11] 91% | residual activity [12] 100% | residual activity [13] 71% | residual activity [14] 100% | residual activity [15] 100% | residual activity [16] 95% | residual activity [17] 73% | residual activity [18] 100% | residual activity [19] 94% | residual activity [20] 100% | inhibition [21] -3.46% | residual activity [22] 100% | residual activity [23] 100% | residual activity [24] 100% | residual activity [25] 100% | residual activity [26] 100% | residual activity [27] 100% | residual activity [28] 100% | residual activity [29] 100% | residual activity [30] 100% | residual activity [31] 100% | residual activity [32] 98% | residual activity [33] 100% | residual activity [34] 97% | residual activity [35] 93% | residual activity [36] 100% | inhibition [37] 24.9% | residual activity [38] 100% | residual activity [39] 100% | inhibition [40] 23.3% | residual activity [41] 100% | residual activity [42] 100% | residual activity [43] 61%

From ChEMBL document CHEMBL4507293 (2021)
